Data taken from ChEMBL document CHEMBL3044826, “Design, synthesis and biological evaluation of some novel substituted 2-mercapto-3-phenethylquinazolines as antitumor agents” (2013).
Active and inactive are the calls of the source. The rule behind the calls is not given here.

Experiments:
SK-MEL-5 = experiment: Cytotoxicity against Homo sapiens (human) SK-MEL-5 cells assessed as growth inhibition at 10 uM after 48 hr by coulter counter analysis; type: functional; details: SK-MEL-5, 48 h, read-out: GI
786-0 = experiment: Cytotoxicity against Homo sapiens (human) 786-0 cells assessed as growth inhibition at 10 uM after 48 hr by coulter counter analysis; type: functional; details: 786-0, 48 h, read-out: GI
A498 = experiment: Cytotoxicity against Homo sapiens (human) A498 cells assessed as growth inhibition at 10 uM after 48 hr by coulter counter analysis; type: functional; details: A498, 48 h, read-out: GI
CCRF-CEM = experiment: Cytotoxicity against Homo sapiens (human) CCRF-CEM cells assessed as growth inhibition at 10 uM after 48 hr by coulter counter analysis; type: functional; details: read-out: GI
NCI-H522 = experiment: Cytotoxicity against Homo sapiens (human) NCI-H522 cells at 10 uM after 48 hr by coulter counter analysis; type: functional, cell-based
HL-60(TB) = experiment: Cytotoxicity against Homo sapiens (human) HL-60(TB) cells assessed as growth inhibition at 10 uM after 48 hr by coulter counter analysis; type: functional; details: HL-60, 48 h, read-out: GI
NCI-H226 = experiment: Cytotoxicity against Homo sapiens (human) NCI-H226 cells assessed as growth inhibition at 10 uM after 48 hr by coulter counter analysis; type: functional; details: NCI-H226, 48 h, read-out: GI
Hs-578T = experiment: Cytotoxicity against Homo sapiens (human) Hs578T cells assessed as growth inhibition at 10 uM after 48 hr by coulter counter analysis; type: functional; details: read-out: GI
MOLT-4 = experiment: Cytotoxicity against Homo sapiens (human) MOLT4 cells assessed as growth inhibition at 10 uM after 48 hr by coulter counter analysis; type: functional; details: MOLT-4, 48 h, read-out: GI
UACC-62 = experiment: Cytotoxicity against Homo sapiens (human) UACC62 cells assessed as growth inhibition at 10 uM after 48 hr by coulter counter analysis; type: functional; details: UACC-62, 48 h, read-out: GI
NCI-H460 = experiment: Cytotoxicity against Homo sapiens (human) NCI-H460 cells assessed as growth inhibition at 10 uM after 48 hr by coulter counter analysis; type: functional; details: NCI-H460, 48 h, read-out: GI
T47D = experiment: Cytotoxicity against Homo sapiens (human) T47D cells assessed as growth inhibition at 10 uM after 48 hr by coulter counter analysis; type: functional; details: read-out: GI
SF-295 = experiment: Cytotoxicity against Homo sapiens (human) SF295 cells assessed as growth inhibition at 10 uM after 48 hr by coulter counter analysis; type: functional; details: SF-295, 48 h, read-out: GI
[1] = Cytotoxicity against Homo sapiens (human) NCI-ADR-RES cells assessed as growth inhibition at 10 uM after 48 hr by coulter counter analysis; type: functional; details: read-out: GI
U-251 = experiment: Cytotoxicity against Homo sapiens (human) U251 cells assessed as growth inhibition at 10 uM after 48 hr by coulter counter analysis; type: functional; details: U-251, 48 h, read-out: GI
HCC 2998 = experiment: Cytotoxicity against Homo sapiens (human) HCC2998 cells assessed as growth inhibition at 10 uM after 48 hr by coulter counter analysis; type: functional; details: HCC 2998, 48 h, read-out: GI
NCI-H322M = experiment: Cytotoxicity against Homo sapiens (human) NCI-H322M cells assessed as growth inhibition at 10 uM after 48 hr by coulter counter analysis; type: functional; details: read-out: GI
IGROV-1 = experiment: Cytotoxicity against Homo sapiens (human) IGROV1 cells assessed as growth inhibition at 10 uM after 48 hr by coulter counter analysis; type: functional; details: IGROV-1, 48 h, read-out: GI
COLO 205 = experiment: Cytotoxicity against Homo sapiens (human) COLO205 cells assessed as growth inhibition at 10 uM after 48 hr by coulter counter analysis; type: functional; details: COLO 205, 48 h, read-out: GI
UACC-257 = experiment: Cytotoxicity against Homo sapiens (human) UACC257 cells assessed as growth inhibition at 10 uM after 48 hr by coulter counter analysis; type: functional; details: UACC-257, 48 h, read-out: GI
UO-31 = experiment: Cytotoxicity against Homo sapiens (human) UO31 cells assessed as growth inhibition at 10 uM after 48 hr by coulter counter analysis; type: functional; details: UO-31, 48 h, read-out: GI

CCn1c(S)nnc1CSc1nc2ccccc2c(=O)n1CCc1ccccc1
inhibition of growth at 10 µM (SK-MEL-5): 18%
inhibition of growth at 10 µM (786-0): 19%
inhibition of growth at 10 µM (A498): < 10%
inhibition of growth at 10 µM (CCRF-CEM): 27%
Activity (NCI-H522): Active
inhibition of growth at 10 µM (HL-60(TB)): 30%
inhibition of growth at 10 µM (NCI-H226): 35%
inhibition of growth at 10 µM (Hs-578T): < 10%
inhibition of growth at 10 µM (MOLT-4): 29%
inhibition of growth at 10 µM (UACC-62): 15%
inhibition of growth at 10 µM (NCI-H460): 31%
inhibition of growth at 10 µM (T47D): 27%
inhibition of growth at 10 µM (SF-295): < 10%
inhibition of growth at 10 µM [1]: 27%
inhibition of growth at 10 µM (U-251): < 10%
inhibition of growth at 10 µM (HCC 2998): < 10%
inhibition of growth at 10 µM (NCI-H322M): 27%
inhibition of growth at 10 µM (IGROV-1): < 10%
inhibition of growth at 10 µM (COLO 205): < 10%
inhibition of growth at 10 µM (UACC-257): 12%
inhibition of growth at 10 µM (UO-31): 24%
